This note sets out measurements from US9487483B2, “Complement pathway modulators and uses thereof” (priority 2012, dated 2016).

Chain of Recombinant human factor D (P00746 26-253): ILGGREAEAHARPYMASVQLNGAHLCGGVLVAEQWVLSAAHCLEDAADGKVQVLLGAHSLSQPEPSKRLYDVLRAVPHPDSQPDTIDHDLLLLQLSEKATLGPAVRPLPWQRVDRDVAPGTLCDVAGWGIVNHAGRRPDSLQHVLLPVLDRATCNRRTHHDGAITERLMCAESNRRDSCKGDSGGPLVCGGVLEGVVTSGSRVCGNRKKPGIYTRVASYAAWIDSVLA

One assay addresses Recombinant human factor D (Homo sapiens (Human), UniProt P00746). Nature of the assay: biochemical. The format is biochemical. Conditions: Factor D inhibition data using Method 1; substrate Z-Lys-thiobenzyl, fluorescence readout; read-out: IC50.
Method: Human Complement Factor D Assay: Method 1
Recombinant human factor D (expressed in E. coli and purified using standard methods) at 10 nM concentration is incubated with test compound at various concentrations for 1 hour at room temperature in 0.1 M Hepes buffer, pH 7.5, containing 1 mM MgCl2, 1 M NaCl and 0.05% CHAPS. […] IC50 values are calculated from percentage of inhibition of complement factor D-activity as a function of test compound concentration.
Regarding `COC(=O)[C@@H]1CC[C@@H](NC(=O)[C@@H]2C[C@H]3C[C@H]3N2C(=O)Cn2nc(C(C)=O)c3cccnc32)C1` [Example 13, (1R,3R)-3-({(1R,3S,5R)-2-[2-(3-Acetyl-pyrazolo[3,4-b]pyridin-1-yl)-acetyl]-2-aza-bicyclo[3.1.0]hexane-3-carbonyl}-amino)-cyclopentane carboxylic acid methyl ester], the IC50 (commonly the concentration at which inhibition is half-maximal) was 5970 nM. In the case of `COC(=O)[C@@H]1CCC[C@H](NC(=O)[C@@H]2C[C@H]3C[C@H]3N2C(=O)Cn2nc(C(C)=O)c3cccnc32)C1` [Example 14, (1R,3S)-3-({(1R,3S,5R)-2-[2-(3-Acetyl-pyrazolo[3,4-b]pyridin-1-yl)-acetyl]-2-aza-bicyclo[3.1.0]hexane-3-carbonyl}-amino)-cyclohexanecarboxylic acid methyl ester], the IC50 amounted to 2430 nM. Still for that read-out and setting: next, `NC(=O)n1cc(NC(=O)N2[C@@H]3C[C@@H]3C[C@H]2C(=O)NC2CCCCC2)c2ccccc21` [Example 15, (1R,3S,5R)-2-Aza-bicyclo[3.1.0]hexane-2,3-dicarboxylic acid 2-[(1-carbamoyl-1H-indol-3-yl)-amide]3-cyclohexylamide]: 1760 nM; `NC(=O)n1cc(NC(=O)N2[C@@H]3C[C@@H]3C[C@H]2C(=O)N[C@@H]2C=CCCC2)c2ccccc21` [Example 16, (1R,3S,5R)-2-Aza-bicyclo[3.1.0]hexane-2,3-dicarboxylic acid 2-[(1-carbamoyl-1H-indol-3-yl)-amide] 3-(S)-cyclohex-2-enylamide]: 3150 nM. Still for that read-out and setting: next, `CO[C@H]1CCC[C@@H](NC(=O)[C@@H]2C[C@H]3C[C@H]3N2C(=O)Nc2cn(C(N)=O)c3ccccc23)C1` [Example 21, (1R,3S,5R)-2-Aza-bicyclo[3.1.0]hexane-2,3-dicarboxylic acid 2-[(1-carbamoyl-1H-indol-3-yl)-amide] 3-[((1R,3S)-3-methoxy-cyclohexyl)-amide]]: 486 nM; `CC1(C)CCC[C@@H](NC(=O)[C@@H]2C[C@H]3C[C@H]3N2C(=O)Nc2cn(C(N)=O)c3ccccc23)C1` [Example 22, (1R,3S,5R)-2-Aza-bicyclo[3.1.0]hexane-2,3-dicarboxylic acid 2-[(1-carbamoyl-1H-indol-3-yl)-amide] 3-[((R)-3,3-dimethyl-cyclohexyl)-amide]]: 15 nM; `CC[C@H]1CCC[C@@H](NC(=O)[C@@H]2C[C@H]3C[C@H]3N2C(=O)Nc2cn(C(N)=O)c3ccccc23)C1` [Example 23, (1R,3S,5R)-2-Aza-bicyclo [3.1.0]hexane-2,3-dicarboxylic acid 2-[(1-carbamoyl-1H-indol-3-yl)-amide] 3-[((1R,3S)-3-ethyl-cyclohexyl)-amide]]: 16 nM.

On to `CC[C@@H]1CCC[C@H](NC(=O)[C@@H]2C[C@H]3C[C@H]3N2C(=O)Nc2cn(C(N)=O)c3ccccc23)C1` [Example 24, (1R,3S,5R)-2-Aza-bicyclo [3.1.0]hexane-2,3-dicarboxylic acid 2-[(1-carbamoyl-1H-indol-3-yl)-amide] 3-[((1S,3R)-3-ethyl-cyclohexyl)-amide]], for which the IC50 came to 401 nM. `NC(=O)n1cc(NC(=O)N2[C@@H]3C[C@@H]3C[C@H]2C(=O)N[C@@H]2CCC[C@H](C(F)(F)F)C2)c2ccccc21` [Example 26, (1R,3S,5R)-2-Aza-bicyclo[3.1.0]hexane-2,3-dicarboxylic acid 2-[(1-carbamoyl-1H-indol-3-yl)-amide] 3-[((1R,3S)-3-trifluoromethyl-cyclohexyl)-amide]]: the IC50 stood at 26 nM.

For `CC1(C)CCC[C@@H](NC(=O)[C@@H]2C[C@@H](F)CN2C(=O)Nc2cn(C(N)=O)c3ccccc23)C1` [Example 27, (2S,4R)-4-Fluoro-pyrrolidine-1,2-dicarboxylic acid 1-[(1-carbamoyl-1H-indol-3-yl)-amide] 2-[((R)-3,3-dimethyl-cyclohexyl)-amide]], the IC50 came out at 40 nM. The same measure, in the same setting: next, `NC(=O)c1nn(CC(=O)N2[C@@H]3C[C@@H]3C[C@H]2C(=O)NC2CCCC(O)(C(F)(F)F)C2)c2ccccc12` (stereo partly drawn) [Example 31, 1-{2-[(1R,3S,5R)-3-(3-Hydroxy-3-trifluoromethyl-cyclohexylcarbamoyl)-2-aza-bicyclo[3.1.0]hex-2-yl]-2-oxo-ethyl}-1H-indazole-3-carboxylic acid amide]: 900 nM; `CC(=O)c1nn(CC(=O)N2[C@@H]3C[C@@H]3C[C@H]2C(=O)NC2CCCC(OC(F)(F)F)C2)c2ccccc12` (stereo partly drawn) [Example 32, (1R,3S,5R)-2-[2-(3-Acetyl-indazol-1-yl)-acetyl]-2-aza-bicyclo[3.1.0]hexane-3-carboxylic acid (trans-3-trifluoromethoxy-cyclohexyl)-amide]: 63 nM; `NC(=O)c1nn(CC(=O)N2[C@@H]3C[C@@H]3C[C@H]2C(=O)NC2CCCC(O)(C(F)(F)F)C2)c2cnccc12` (stereo partly drawn) [Example 34, 1-{2-[(1R,3S,5R)-3-(3-Hydroxy-3-trifluoromethyl-cyclohexylcarbamoyl)-2-aza-bicyclo[3.1.0]hex-2-yl]-2-oxo-ethyl}-1H-pyrazolo[3,4-c]pyridine-3-carboxylic acid amide]: 728 nM. On the same count and under the same terms, the value for `NC(=O)c1nn(CC(=O)N2[C@@H]3C[C@@H]3C[C@H]2C(=O)NC2CCCCC2(F)F)c2cnccc12` (stereo partly drawn) [Example 35, 1-{2-[(1R,3S,5R)-3-(2,2-Difluoro-cyclohexylcarbamoyl)-2-aza-bicyclo[3.1.0]hex-2-yl]-2-oxo-ethyl}-1H-pyrazolo[3,4-c]pyridine-3-carboxylic acid amide] was 774 nM; that for `CC(=O)c1nn(CC(=O)N2[C@@H]3C[C@@H]3C[C@H]2C(=O)NC2CCCC=C2F)c2ccc(OCc3ncccn3)cc12` (stereo partly drawn) [Example 38, (1R,3S,5R)-2-{2-[3-acetyl-5-(pyrimidin-2-ylmethoxy)-indazol-1-yl]-acetyl}-2-aza-bicyclo[3.1.0]hexane-3-carboxylic acid (2-fluoro-cyclohex-2-enyl)-amide] was 282 nM.

The same assay, now with this note: read-out: IC50.
For `C[C@H]1CCC[C@@H](NC(=O)[C@@H]2C[C@H]3C[C@H]3N2C(=O)Nc2cn(C(N)=O)c3ccccc23)C1` [Example 25, (1R,3S,5R)-2-Aza-bicyclo[3.1.0] hexane-2,3-dicarboxylic acid 2-[(1-carbamoyl-1H-indol-3-yl)-amide] 3-[((1R,3S)-3-methyl-cyclohexyl)-amide]], the IC50 was 28 nM. In the case of `Cc1cc2c(C(N)=O)nn(CC(=O)N3[C@@H]4C[C@@H]4C[C@H]3C(=O)NN3CCCC(C)(C)C3)c2cn1` [Example 29, 1{2-[(1R,3S,5R)-3-(3,3-Dimethyl-pipendin-1-ylcarbamoyl)-2-aza-bicyclo[3.1.0]hex-2-yl]-2-oxo-ethyl}-5-methyl-1H-pyrazolo[3,4-c] pyridine-3-carboxylic acid amide], the IC50 is 28 nM. On the same count and under the same terms, the value for `CC(=O)c1nn(CC(=O)N2[C@@H]3C[C@@H]3C[C@H]2C(=O)NN2CCCC(C)(C)C2)c2ccc(OCc3ncccn3)cc12` [Example 30, (1R,3S,5R)-2-{2-[3-Acetyl-5-(pyrimidin-2-ylmethoxy)-indazol-1-yl]-acetyl}-2-aza-bicyclo[3.1.0] hexane-3-carboxylic acid (3,3-dimethyl-piperidin-1-yl)-amide] was 10 nM; that for `NC(=O)c1nn(CC(=O)N2[C@@H]3C[C@@H]3C[C@H]2C(=O)NC2CCCC(OC(F)(F)F)C2)c2ccccc12` (stereo partly drawn) [Example 33, 1-{2-Oxo-2-[(1R,3S,5R)-3-(trans-3-trifluoromethoxy-cyclohexylcarbamoyl)-2-aza-bicyclo[3.1.0]hex-2-yl]ethyl}-1H-indazole-3-carboxylic acid amide] was 121 nM.
